# Measurements reported in PubChem BioAssay (NCI).
#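 The compound was tested at five concentrations on cells cultured in 96-well plates, with a 48-hour exposure period. TGI denotes the concentration required for complete inhibition of growth.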
# Key:
# Test in all cases: NCI tumour cell line growth inhibition, 48 h
# [1] = tested on: HCT-15 colon
# [2] = tested on: SW-620 colon
# [3] = tested on: KM12 colon
# [4] = tested on: MDA-MB-435
# [5] = tested on: LOX IMVI melanoma
# [6] = tested on: HT29 colon
# [7] = tested on: ACHN renal
# [8] = tested on: NCI/ADR-RES ovarian
# [9] = tested on: MDA-MB-231 breast
# [10] = tested on: SK-MEL-5 melanoma
# [11] = tested on: MCF7 breast
# [12] = tested on: HCT-116 colon
# [13] = tested on: UACC-62 melanoma
# [14] = tested on: A549 NSCLC
# [15] = tested on: HS 578T breast
# [16] = tested on: U251 CNS
# [17] = tested on: CCRF-CEM leukemia
# [18] = tested on: SN12C renal
# [19] = tested on: SF-539 CNS
# [20] = tested on: SR leukemia
# [21] = tested on: OVCAR-4 ovarian
# [22] = tested on: SK-OV-3 ovarian
# [23] = tested on: M14 melanoma
# [24] = tested on: TK-10 renal
# [25] = tested on: MOLT-4 leukemia
# [26] = tested on: HCC-2998 colon
# [27] = tested on: NCI-H23 lung
# [28] = tested on: SNB-75 CNS
# [29] = tested on: T-47D breast
# [30] = tested on: K-562 leukemia
# [31] = tested on: COLO 205 colon
# [32] = tested on: HOP-62 NSCLC
# [33] = tested on: 786-0 renal
# [34] = tested on: UACC-257 melanoma
# [35] = tested on: NCI-H460 lung
# [36] = tested on: OVCAR-5 ovarian
# [37] = tested on: CAKI-1 renal
# [38] = tested on: HOP-92 NSCLC
# [39] = tested on: SK-MEL-2 melanoma
# [40] = tested on: OVCAR-3 ovarian
# [41] = tested on: SF-295 CNS
# [42] = tested on: UO-31 renal
# [43] = tested on: SK-MEL-28 melanoma
# [44] = tested on: OVCAR-8 ovarian
# [45] = tested on: A498 renal
# [46] = tested on: DU-145 prostate
# [47] = tested on: BT-549 breast
# [48] = tested on: MALME-3M melanoma
# [49] = tested on: EKVX NSCLC
# [50] = tested on: PC-3 prostate
# [51] = tested on: SNB-19 CNS
# [52] = tested on: MDA-N
# [53] = tested on: NCI-H226 lung
# [54] = tested on: IGROV1 ovarian
# [55] = tested on: NCI-H522 lung
# [56] = tested on: SF-268 CNS
# [57] = tested on: RPMI-8226 leukemia
# [58] = tested on: HL-60(TB) leukemia
# [59] = tested on: RXF 393 renal
structure (smiles),measurement,setting,value
O=C(/C=C/c1ccc2c(c1)OCO2)NCc1ccco1,TGI,[1],> 100 µM
same,TGI,[2],> 100 µM
same,TGI,[3],> 100 µM
same,TGI,[4],> 100 µM
same,TGI,[5],> 100 µM
same,TGI,[6],> 100 µM
same,TGI,[7],> 100 µM
same,TGI,[8],> 100 µM
same,TGI,[9],> 100 µM
same,TGI,[10],> 100 µM
same,TGI,[11],> 100 µM
same,TGI,[12],> 100 µM
same,TGI,[13],> 100 µM
same,TGI,[14],> 100 µM
same,TGI,[15],> 100 µM
same,TGI,[16],> 100 µM
same,TGI,[17],> 100 µM
same,TGI,[18],> 100 µM
same,TGI,[19],> 100 µM
same,TGI,[20],> 100 µM
same,TGI,[21],> 100 µM
same,TGI,[22],> 100 µM
same,TGI,[23],> 100 µM
same,TGI,[24],> 100 µM
same,TGI,[25],> 100 µM
same,TGI,[26],> 100 µM
same,TGI,[27],> 100 µM
same,TGI,[28],> 100 µM
same,TGI,[29],80.9 µM
same,TGI,[30],> 100 µM
same,TGI,[31],> 100 µM
same,TGI,[32],> 100 µM
same,TGI,[33],> 100 µM
same,TGI,[34],> 100 µM
same,TGI,[35],> 100 µM
same,TGI,[36],> 100 µM
same,TGI,[37],> 100 µM
same,TGI,[38],> 100 µM
same,TGI,[39],> 100 µM
same,TGI,[40],> 100 µM
same,TGI,[41],> 100 µM
same,TGI,[42],> 100 µM
same,TGI,[43],> 100 µM
same,TGI,[44],> 100 µM
same,TGI,[45],> 100 µM
same,TGI,[46],> 100 µM
same,TGI,[47],> 100 µM
same,TGI,[48],> 100 µM
same,TGI,[49],> 100 µM
same,TGI,[50],> 100 µM
same,TGI,[51],> 100 µM
same,TGI,[52],> 100 µM
same,TGI,[53],> 100 µM
same,TGI,[54],> 100 µM
N#C/C(=C\c1ccc(Cl)cc1)c1nc(-c2cc3ccccc3oc2=O)cs1,TGI,[1],> 100 µM
same,TGI,[2],> 100 µM
same,TGI,[55],50.1 µM
same,TGI,[3],> 100 µM
same,TGI,[4],> 100 µM
same,TGI,[5],> 100 µM
same,TGI,[6],> 100 µM
same,TGI,[7],> 100 µM
same,TGI,[8],> 100 µM
same,TGI,[9],47.8 µM
same,TGI,[10],> 100 µM
same,TGI,[11],> 100 µM
same,TGI,[12],> 100 µM
same,TGI,[13],85.3 µM
same,TGI,[14],> 100 µM
same,TGI,[15],37.7 µM
same,TGI,[16],93.3 µM
same,TGI,[17],> 100 µM
same,TGI,[18],> 100 µM
same,TGI,[19],> 100 µM
same,TGI,[20],> 100 µM
same,TGI,[21],> 100 µM
same,TGI,[22],> 100 µM
same,TGI,[23],> 100 µM
same,TGI,[24],94.6 µM
same,TGI,[25],> 100 µM
same,TGI,[26],> 100 µM
same,TGI,[28],> 100 µM
same,TGI,[56],> 100 µM
same,TGI,[29],> 100 µM
same,TGI,[30],> 100 µM
same,TGI,[31],> 100 µM
same,TGI,[57],> 100 µM
same,TGI,[58],> 100 µM
same,TGI,[32],58.2 µM
same,TGI,[33],> 100 µM
same,TGI,[34],> 100 µM
same,TGI,[35],> 100 µM
same,TGI,[36],> 100 µM
same,TGI,[37],> 100 µM
same,TGI,[38],51.3 µM
same,TGI,[39],> 100 µM
same,TGI,[41],> 100 µM
same,TGI,[42],> 100 µM
same,TGI,[43],> 100 µM
same,TGI,[44],> 100 µM
same,TGI,[46],> 100 µM
same,TGI,[47],31.8 µM
same,TGI,[59],> 100 µM
same,TGI,[48],> 100 µM
same,TGI,[49],> 100 µM
same,TGI,[50],> 100 µM
same,TGI,[51],> 100 µM
same,TGI,[52],> 100 µM
same,TGI,[53],> 100 µM
same,TGI,[54],> 100 µM
N=C(c1ccc(-c2cn3cc(C(=N)N4CCCC4)ccc3n2)cc1)N1CCCC1,TGI,[1],> 100 µM
same,TGI,[2],> 100 µM
same,TGI,[55],> 100 µM
same,TGI,[3],> 100 µM
same,TGI,[4],> 100 µM
same,TGI,[5],> 100 µM
same,TGI,[6],> 100 µM
same,TGI,[7],> 100 µM
same,TGI,[8],> 100 µM
same,TGI,[9],> 100 µM
same,TGI,[10],> 100 µM
same,TGI,[12],> 100 µM
same,TGI,[13],> 100 µM
same,TGI,[14],> 100 µM
same,TGI,[15],> 100 µM
same,TGI,[16],> 100 µM
same,TGI,[17],83.1 µM
same,TGI,[18],> 100 µM
same,TGI,[20],> 100 µM
same,TGI,[21],> 100 µM
same,TGI,[22],> 100 µM
same,TGI,[23],> 100 µM
same,TGI,[24],> 100 µM
same,TGI,[25],> 100 µM
same,TGI,[27],> 100 µM
same,TGI,[28],> 100 µM
same,TGI,[56],> 100 µM
same,TGI,[29],> 100 µM
same,TGI,[30],> 100 µM
same,TGI,[31],> 100 µM
same,TGI,[57],> 100 µM
same,TGI,[58],0.158 µM
same,TGI,[32],> 100 µM
same,TGI,[33],> 100 µM
same,TGI,[34],> 100 µM
same,TGI,[36],> 100 µM
same,TGI,[37],> 100 µM
same,TGI,[38],> 100 µM
same,TGI,[39],> 100 µM
same,TGI,[40],> 100 µM
same,TGI,[41],> 100 µM
same,TGI,[42],> 100 µM
same,TGI,[43],> 100 µM
same,TGI,[44],> 100 µM
same,TGI,[46],> 100 µM
same,TGI,[47],> 100 µM
same,TGI,[59],> 100 µM
same,TGI,[48],> 100 µM
same,TGI,[49],> 100 µM
same,TGI,[50],> 100 µM
same,TGI,[51],> 100 µM
same,TGI,[52],> 100 µM
same,TGI,[53],> 100 µM
same,TGI,[54],> 100 µM
